We go through three compounds from paper PMC9858427, “Design, synthesis and biological evaluation of 2-((4-sulfamoylphenyl)amino)-pyrrolo[2,3-d]pyrimidine derivatives as CDK inhibitors” (Journal of Enzyme Inhibition and Medicinal Chemistry, 2023).

Series [1] has as its system MIA PaCa-2 cells. In words: MTT proliferation assay in MIA PaCa-2 cells. The series is classed as cell-based, human. As to conditions: Homo sapiens, MIA PaCa-2, 72 h, 72 h drug exposure. On the procedure:
(§1) The human pancreatic carcinoma MIA PaCa-2 was purchased from China Centre for Type Culture Collection, AsPC-1 and BxPC-3 cell Lines were purchased from Cell Centre of the Institute of Basic Medical Sciences, Chinese Academy of Medical Sciences and Peking Union Medical College. PANC-1 was kindly provided by Nankai Hospital (Tianjin, China). These cancer cell lines were cultured according to the manufacturer’s instruction.
(§2) Then 3-fold diluted concentrations of tested compound were added respectively which was dissolved by DMSO in the ratio of 1:1000. After indicated incubation period, MTT was added to each well and incubated for 4 h at 37 °C. Then, the supernatant was discarded gently, and the precipitate was dissolved in 100 µL of DMSO in each well. The absorbance (A) at 570 nm was detected with a microplate reader (Multiskan MK3; Thermo Fisher Scientific, MA, USA). Vehicle-treated cells were served as the control for the calculation of relative cell viability (%) of treated group at single concentration. IC50 value was calculated directly from the inhibition curve of serial dilution of test compound and was expressed as mean ± SD using the SPSS statistical software (SPSS17.0 Inc., Chicago, IL, USA).
(Tetrazolium dyes change colour on reduction, which living cells bring about.)

The test system of another series is BxPC-3. Nature of the series: MTT proliferation assay in BxPC-3 cells. The series is classed as cell-based. To be noted: Homo sapiens, 72 h drug exposure. The method, then: as §1
as §2, with “Cells were planted in 96-well plates at a density of 3000–4000 cells per well and incubated at 37 °C in a humidified CO2 incubator for 24 h. Then 3-fold” for “Then 3-fold”

The test system of series [2] is AsPC-1 cell-derived xenograft. In words: AsPC-1 cell-derived xenograft mice model, in vivo efficacy. More on the design: species or system BALB/C nude mice. To be noted: GCTB 50 mg/kg intraperitoneal once a week, 3 weeks; vs vehicle group. The method, then:
Synthetic compound was administered as a suspension or solution in the saline with 5% DMSO and 5% Solutol. GCTB was dissolved in saline. All of the experiments were approved by the Institutional Animal Care and Use Committee of Institute of Medicinal Biotechnology. All experiments were carried out under ethics committee–approved protocols and in compliance with the guidelines for the care of laboratory animals of Institute of Medicinal Biotechnology, CAMS.
AsPC-1 (5 × 10^7) cells were injected subcutaneously into 5-week-old female BALB/C nude mice (Beijing Huafukang Bioscience CO. Inc, Beijing, China). After two weeks, mice were omogenizamised and treated with vehicle, gemcitabine (GCTB), or test compound. Blank solvent and test compound was administered by oral gavage (10 ml/kg) with once daily of five days and followed by 2 days off in each week, GCTB was given once a week by 50 mg/kg intraperitoneal injection. Mice were inspected daily for clinical signs, both tumour diameters and body weight were determined 3 times weekly. Tumour volumes were calculated according to the formula “tumor volume (V) = length × width^2/2”. Median TGI values were calculated as follows: TGI = 100 × [1-(Vtreated group at day20-Vtreated group at day1)/(Vvehicle group at day20-Vvehicle group at day1)]. Data were plotted as average with SD in the graphical representation of tumour growth. The p values obtained from the two-way ANOVA analysis. Meanwhile, main organs of mice were collected, formalin-fixed and paraffin-embedded for pathological analysis by H&E dyeing. For drug concentration determination, blood and tumour tissues were collected at indicated time after single administration. Standard curve of test compound was established in the acquisition mode of SIM using a SHIMADZU LC-MS instrument. […] After centrifugation at 10 × 10^3 for 5 min, the supernatant was injected directedly into LC-MS instrument for quantification of drug concentration. […] After centrifugation under same condition as plasma samples, supernatant was separated and injected into LC-MS for quantification.

The next series has as its system PANC-1. In words: MTT proliferation assay in PANC-1 cells. It is filed as cell-based. To be noted: Homo sapiens, 72 h drug exposure. The method, then:
as §1
as §2, with “Cells were planted in 96-well plates at a density of 3000–4000 cells per well and incubated at 37 °C in a humidified CO2 incubator for 24 h. Then 3-fold” for “Then 3-fold”

A short description of series [3]: Body weight and H&E pathology of main organs in xenograft mice. The series is classed as in vivo, BALB/C nude mice. As to conditions: after 3-week treatment. The method, then: AsPC-1 (5 × 10^7) cells were injected subcutaneously into 5-week-old female BALB/C nude mice (Beijing Huafukang Bioscience CO. Inc, Beijing, China). After two weeks, mice were omogenizamised and treated with vehicle, gemcitabine (GCTB), or test compound. Blank solvent and test compound was administered by oral gavage (10 ml/kg) with once daily of five days and followed by 2 days off in each week, GCTB was given once a week by 50 mg/kg intraperitoneal injection. Mice were inspected daily for clinical signs, both tumour diameters and body weight were determined 3 times weekly. Tumour volumes were calculated according to the formula “tumor volume (V) = length × width^2/2”. Median TGI values were calculated as follows: TGI = 100 × [1-(Vtreated group at day20-Vtreated group at day1)/(Vvehicle group at day20-Vvehicle group at day1)]. Data were plotted as average with SD in the graphical representation of tumour growth. The p values obtained from the two-way ANOVA analysis. Meanwhile, main organs of mice were collected, formalin-fixed and paraffin-embedded for pathological analysis by H&E dyeing. For drug concentration determination, blood and tumour tissues were collected at indicated time after single administration. Standard curve of test compound was established in the acquisition mode of SIM using a SHIMADZU LC-MS instrument. Blood kept in anticoagulant tube coated with heparin sodium was centrifuged to provide the supernatant, which was followed by added with 3-fold acetonitrile to precipitate plasma protein. After centrifugation at 10 × 10^3 for 5 min, the supernatant was injected directedly into LC-MS instrument for quantification of drug concentration. As for tumour tissues, omogenizationation (Precellys Evolution) was done after weighed accurately and added with 3-fold saline. After centrifugation under same condition as plasma samples, supernatant was separated and injected into LC-MS for quantification.

The next series has as its system AsPC-1. In words: MTT proliferation assay in AsPC-1 cells. The series is classed as cell-based. As to conditions: Homo sapiens, ASPC1; 72 h drug exposure. On the procedure:
as §1
as §2, with “Cells were planted in 96-well plates at a density of 3000–4000 cells per well and incubated at 37 °C in a humidified CO2 incubator for 24 h. Then 3-fold” for “Then 3-fold”

Series [4] in a line: Solubility / precipitation observations. The series is classed as physicochemical.
The target in another series is CDK9/cyclinT1 (Homo sapiens, UniProt P50750). Nature of the series: CDK9/cyclinT1 Lance Ultra Assay, single concentration screen. The series is classed as biochemical. As to conditions: 50 nM, ATP concentration at Km, read-out: CDK9 inhibitory rate (%) @ 50nM. On the procedure:
(§3) CDK kinase activity (IC50 values and inhibitory rate at single concentration) was measured using the kinase profiling services (Shanghai ChemPartner Co., Ltd). Compounds were sent to ChemPartner as a solution in DMSO at concentration of 10 mM.

The target in series [5] is T1, CDK7 (Homo sapiens, UniProt P50613). Nature of the series: CDK7 kinase IC50, Mobility shift assay. The series is classed as biochemical. The method, then: as §3
Series [6] deals with T2, CDK1 (Homo sapiens, UniProt P06493). In words: CDK1 kinase IC50, Mobility shift assay. It is filed as biochemical. The method, then:
as §3

The target in series [7] is T3, CDK2 (Homo sapiens, UniProt P24941). In words: CDK kinase screening at 1 μM, CDK2. The series is classed as biochemical. As to conditions: read-out: Inhibitory rate at 1μM: CDK2. On the procedure: as §3
The target of a further series is CDK6 (Homo sapiens, UniProt Q00534). Nature of the series: CDK kinase screening at 1 μM, CDK6. It is filed as biochemical. As to conditions: read-out: Inhibitory rate at 1μM: CDK6. The method, then: as §3
Series [8] addresses T4, CDK9 (Homo sapiens, UniProt P50750). Nature of the series: CDK9 kinase IC50, Mobility shift assay. It is filed as biochemical. On the procedure:
as §3

The target in series [9] is T3, CDK2. In words: CDK2 kinase IC50, Mobility shift assay. It is filed as biochemical. The method, then:
as §3

Series [10] deals with T5, CDK4 (Homo sapiens, UniProt P11802). In words: CDK kinase screening at 1 μM, CDK4. The series is classed as biochemical. To be noted: read-out: Inhibitory rate at 1μM: CDK4. On the procedure: as §3
The target in series [11] is T5, CDK4. In words: CDK4 kinase IC50, Mobility shift assay. The series is classed as biochemical. The method, then:
as §3

The next series deals with CDK5 (Homo sapiens, UniProt Q00535). In words: CDK kinase screening at 1 μM, CDK5. It is filed as biochemical. To be noted: read-out: Inhibitory rate at 1μM: CDK5. The method, then: as §3
In series [12] the test system is MIA PaCa-2 cells. More on the design: method as in PMID 33316409. As to conditions: previous study ref 23; cited from earlier work.
Another series deals with CDK8 (Homo sapiens, UniProt P49336). Nature of the series: CDK kinase screening at 1 μM, CDK8. To be noted: read-out: Inhibitory rate at 1μM: CDK8. It is filed as biochemical. The method, then: as §3
The target of series [13] is T1, CDK7. In words: CDK kinase screening at 1 μM, CDK7. As to conditions: read-out: Inhibitory rate at 1μM: CDK7. The series is classed as biochemical. On the procedure: as §3
Series [14] deals with T2, CDK1. Nature of the series: CDK kinase screening at 1 μM, CDK1. The series is classed as biochemical. As to conditions: read-out: Inhibitory rate at 1μM: CDK1. The method, then:
as §3

Series [15] has as its target T4, CDK9. In words: CDK kinase screening at 1 μM, CDK9. It is filed as biochemical. As to conditions: read-out: Inhibitory rate at 1μM: CDK9. On the procedure:
as §3

Another series deals with CDK3 (Homo sapiens, UniProt Q00526). In words: CDK kinase screening at 1 μM, CDK3. It is filed as biochemical. To be noted: read-out: Inhibitory rate at 1μM: CDK3. The method, then: as §3

T2 sequence (P06493 whole entry): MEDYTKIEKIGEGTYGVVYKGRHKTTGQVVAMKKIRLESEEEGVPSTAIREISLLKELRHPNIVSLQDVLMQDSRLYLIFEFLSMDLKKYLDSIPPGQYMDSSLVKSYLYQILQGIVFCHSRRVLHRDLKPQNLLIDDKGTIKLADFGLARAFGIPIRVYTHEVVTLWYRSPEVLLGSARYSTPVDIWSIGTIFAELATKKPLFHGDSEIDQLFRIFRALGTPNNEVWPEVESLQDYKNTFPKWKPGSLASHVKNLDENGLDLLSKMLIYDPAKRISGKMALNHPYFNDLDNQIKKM
T2 sequence (P14635 whole entry partner): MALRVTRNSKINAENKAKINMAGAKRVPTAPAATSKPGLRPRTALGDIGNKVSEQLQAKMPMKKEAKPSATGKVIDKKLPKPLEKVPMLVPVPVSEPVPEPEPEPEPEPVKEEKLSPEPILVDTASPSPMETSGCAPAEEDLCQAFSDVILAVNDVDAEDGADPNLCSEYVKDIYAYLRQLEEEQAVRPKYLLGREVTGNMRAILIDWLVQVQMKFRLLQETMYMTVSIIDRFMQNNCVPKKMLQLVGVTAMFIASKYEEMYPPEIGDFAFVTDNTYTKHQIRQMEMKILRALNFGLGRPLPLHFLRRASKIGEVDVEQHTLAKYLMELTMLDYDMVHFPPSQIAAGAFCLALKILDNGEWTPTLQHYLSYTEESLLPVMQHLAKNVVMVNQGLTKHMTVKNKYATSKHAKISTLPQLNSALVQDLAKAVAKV
T4 sequence (P50750 whole entry): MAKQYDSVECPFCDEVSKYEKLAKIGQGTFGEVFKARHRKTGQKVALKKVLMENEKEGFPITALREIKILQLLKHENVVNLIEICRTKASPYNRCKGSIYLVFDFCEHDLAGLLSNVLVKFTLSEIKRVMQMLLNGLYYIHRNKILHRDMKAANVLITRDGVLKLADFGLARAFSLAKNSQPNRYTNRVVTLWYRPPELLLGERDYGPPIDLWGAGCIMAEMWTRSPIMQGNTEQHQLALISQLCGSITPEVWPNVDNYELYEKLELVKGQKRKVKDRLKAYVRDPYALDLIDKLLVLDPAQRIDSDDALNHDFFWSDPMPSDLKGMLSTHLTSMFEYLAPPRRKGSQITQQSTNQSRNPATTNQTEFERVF
T4 sequence (O60563 whole entry partner): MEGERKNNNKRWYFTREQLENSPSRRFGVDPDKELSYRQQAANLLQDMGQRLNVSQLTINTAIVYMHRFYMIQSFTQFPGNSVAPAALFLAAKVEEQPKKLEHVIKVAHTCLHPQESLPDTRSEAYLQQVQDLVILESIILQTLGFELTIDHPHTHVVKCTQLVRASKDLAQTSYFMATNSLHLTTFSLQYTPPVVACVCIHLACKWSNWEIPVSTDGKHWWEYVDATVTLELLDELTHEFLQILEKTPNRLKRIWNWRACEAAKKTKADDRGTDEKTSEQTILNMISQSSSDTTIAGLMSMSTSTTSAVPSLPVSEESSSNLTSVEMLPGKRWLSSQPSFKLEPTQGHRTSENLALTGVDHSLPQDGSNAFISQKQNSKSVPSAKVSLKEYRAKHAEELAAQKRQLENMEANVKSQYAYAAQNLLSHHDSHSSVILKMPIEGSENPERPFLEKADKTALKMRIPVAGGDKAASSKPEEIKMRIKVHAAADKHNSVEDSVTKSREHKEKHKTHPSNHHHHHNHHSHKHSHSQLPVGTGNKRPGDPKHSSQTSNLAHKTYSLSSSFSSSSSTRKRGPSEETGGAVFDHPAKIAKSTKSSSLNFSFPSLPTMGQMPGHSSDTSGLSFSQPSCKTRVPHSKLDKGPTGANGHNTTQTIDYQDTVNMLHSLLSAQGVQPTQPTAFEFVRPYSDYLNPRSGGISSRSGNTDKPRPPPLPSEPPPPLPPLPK
Sequence of CDK9/cyclinT1 (P50750 whole entry): as the sequence (P50750 whole entry) above
Sequence of CDK9/cyclinT1 (O60563 whole entry partner): as the sequence (O60563 whole entry partner) above
T1 sequence (P50613 whole entry): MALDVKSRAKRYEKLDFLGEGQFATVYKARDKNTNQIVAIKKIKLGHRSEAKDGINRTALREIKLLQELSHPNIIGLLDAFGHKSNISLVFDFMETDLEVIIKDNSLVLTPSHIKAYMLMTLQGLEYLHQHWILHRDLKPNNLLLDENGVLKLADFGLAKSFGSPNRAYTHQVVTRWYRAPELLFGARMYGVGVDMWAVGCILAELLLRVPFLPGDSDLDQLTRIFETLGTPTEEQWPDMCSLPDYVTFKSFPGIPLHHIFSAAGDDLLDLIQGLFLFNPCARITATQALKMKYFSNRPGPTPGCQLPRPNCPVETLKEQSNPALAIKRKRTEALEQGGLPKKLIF
T1 sequence (P51946 whole entry partner): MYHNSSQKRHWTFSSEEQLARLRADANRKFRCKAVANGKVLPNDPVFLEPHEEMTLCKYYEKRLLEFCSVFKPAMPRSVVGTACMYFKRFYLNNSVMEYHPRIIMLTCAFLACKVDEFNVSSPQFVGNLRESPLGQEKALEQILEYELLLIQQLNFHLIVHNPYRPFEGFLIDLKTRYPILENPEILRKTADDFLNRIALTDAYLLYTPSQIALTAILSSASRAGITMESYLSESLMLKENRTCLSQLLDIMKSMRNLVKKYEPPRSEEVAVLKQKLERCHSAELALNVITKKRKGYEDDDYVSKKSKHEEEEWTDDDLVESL
T1 sequence (P51948 whole entry partner): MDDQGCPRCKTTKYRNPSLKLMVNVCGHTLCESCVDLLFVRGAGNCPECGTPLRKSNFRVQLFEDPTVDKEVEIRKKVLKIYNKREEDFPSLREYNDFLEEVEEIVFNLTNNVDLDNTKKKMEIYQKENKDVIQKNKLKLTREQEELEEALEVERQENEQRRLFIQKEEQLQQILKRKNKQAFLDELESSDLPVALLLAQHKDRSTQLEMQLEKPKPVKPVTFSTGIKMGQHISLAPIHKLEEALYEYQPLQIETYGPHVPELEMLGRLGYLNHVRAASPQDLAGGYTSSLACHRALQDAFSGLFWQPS
T5 sequence (P11802 whole entry): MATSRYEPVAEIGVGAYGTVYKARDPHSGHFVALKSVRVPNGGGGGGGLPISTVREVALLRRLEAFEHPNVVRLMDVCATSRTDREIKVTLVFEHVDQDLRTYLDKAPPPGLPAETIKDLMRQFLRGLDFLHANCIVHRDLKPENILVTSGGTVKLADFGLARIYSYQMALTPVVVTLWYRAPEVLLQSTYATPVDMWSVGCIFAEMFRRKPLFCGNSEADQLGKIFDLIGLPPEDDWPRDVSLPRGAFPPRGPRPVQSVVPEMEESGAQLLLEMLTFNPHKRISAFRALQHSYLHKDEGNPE
T5 sequence (P30281 whole entry partner): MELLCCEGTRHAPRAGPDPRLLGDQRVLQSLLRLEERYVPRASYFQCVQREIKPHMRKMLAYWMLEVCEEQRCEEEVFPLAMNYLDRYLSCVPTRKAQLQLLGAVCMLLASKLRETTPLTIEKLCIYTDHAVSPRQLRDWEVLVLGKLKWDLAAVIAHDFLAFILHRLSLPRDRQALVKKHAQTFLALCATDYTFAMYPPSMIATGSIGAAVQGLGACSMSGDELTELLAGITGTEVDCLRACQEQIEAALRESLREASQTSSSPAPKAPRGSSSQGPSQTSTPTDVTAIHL
Sequence of CDK8 (P49336 whole entry): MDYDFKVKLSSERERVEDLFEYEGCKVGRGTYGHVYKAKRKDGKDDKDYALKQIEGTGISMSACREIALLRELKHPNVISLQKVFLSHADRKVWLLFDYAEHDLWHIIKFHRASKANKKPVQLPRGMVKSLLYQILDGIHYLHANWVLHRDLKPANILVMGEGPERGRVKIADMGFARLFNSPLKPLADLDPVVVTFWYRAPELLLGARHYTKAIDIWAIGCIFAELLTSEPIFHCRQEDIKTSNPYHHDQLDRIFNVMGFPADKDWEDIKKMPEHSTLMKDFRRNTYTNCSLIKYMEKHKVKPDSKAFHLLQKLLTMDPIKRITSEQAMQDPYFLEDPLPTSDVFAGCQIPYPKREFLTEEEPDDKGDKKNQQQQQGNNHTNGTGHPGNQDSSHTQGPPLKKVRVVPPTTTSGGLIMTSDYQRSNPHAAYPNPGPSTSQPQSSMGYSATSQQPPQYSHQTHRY
Sequence of CDK8 (P24863 whole entry partner): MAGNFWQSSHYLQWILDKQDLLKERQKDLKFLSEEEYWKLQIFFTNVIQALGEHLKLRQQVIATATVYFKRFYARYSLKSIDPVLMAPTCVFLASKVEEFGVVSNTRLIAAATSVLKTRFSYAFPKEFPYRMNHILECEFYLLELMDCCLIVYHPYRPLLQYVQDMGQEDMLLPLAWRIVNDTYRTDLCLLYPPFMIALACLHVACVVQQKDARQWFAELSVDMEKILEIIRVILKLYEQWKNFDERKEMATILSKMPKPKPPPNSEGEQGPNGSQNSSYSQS
Sequence of CDK6 (Q00534 whole entry): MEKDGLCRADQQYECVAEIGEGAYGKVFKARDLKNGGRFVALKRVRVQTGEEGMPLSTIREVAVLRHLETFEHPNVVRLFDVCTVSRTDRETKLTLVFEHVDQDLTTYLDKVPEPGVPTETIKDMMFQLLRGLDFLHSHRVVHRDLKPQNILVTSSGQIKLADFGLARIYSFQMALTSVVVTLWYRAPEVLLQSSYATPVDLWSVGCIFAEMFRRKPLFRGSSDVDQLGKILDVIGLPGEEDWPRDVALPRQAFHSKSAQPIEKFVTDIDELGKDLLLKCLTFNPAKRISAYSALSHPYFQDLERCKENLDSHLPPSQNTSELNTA
Sequence of CDK6 (P30281 whole entry partner): as the sequence (P30281 whole entry partner) above

A word on the IC50: it is the concentration needed to halve the response being measured. As for `Nc1ccn([C@@H]2O[C@H](CO)[C@@H](O)C2(F)F)c(=O)n1` [GCTB, gemcitabine, reference compound], the IC50 stood at 1.04 ± 0.27 µM with MIA PaCa-2 cells [1], 0.388 ± 0.119 µM in the series with BxPC-3, 5.79 ± 4.21 µM in the series with PANC-1 and 0.956 ± 0.14 µM in the series on AsPC-1. For the same compound, in series [2], the “tumour growth inhibition (TGI)” value was determined as 36%. Also, in [3], the “pathological change in main organs (H&E)” value was “no obvious pathological change”.

`CN(C)C(=O)c1cc2cnc(Nc3ccc(S(=O)(=O)Nc4ccccn4)cc3)nc2n1C1CCCC1` [2c] yielded an IC50 in the series on MIA PaCa-2 cells [1] of 18.8 ± 5.54 µM. Further, the “solubility (in words)” value in [4] is recorded as “poor solubility”. Also, the inhibition at 0.05 µM at CDK9/cyclinT1 stood at 99.1%.

For the compound `Cc1cc(C)nc(NS(=O)(=O)c2ccc(Nc3ncc4cc(C(=O)N(C)C)n(C5CCCC5)c4n3)cc2)n1` [compound 1], the IC50 is > 10000 nM at CDK7 [5]; 516 nM on CDK1 [6]; 4.98 ± 2.68 µM in the series on MIA PaCa-2 cells [1]; 5.6 nM on CDK9 [8]; 91.6 nM at CDK2 [9]; 89 nM on CDK4 [11]. In addition, the IC50 in the series on BxPC-3 is 0.409 ± 0.06 µM; in the series on PANC-1, 3.68 ± 2.5 µM; in the series on AsPC-1, 2.6 ± 0.997 µM. Further, the inhibition at 1 µM was determined as 94.4% on CDK2 [7]; 78.1% on CDK6; 89.2% on CDK4 [10]; 72.1% on CDK5; 0.8% at CDK8; 5.3% on CDK7 [13]. Moreover, the inhibition at 1 µM stood at 65.2% at CDK1 [14], 99% on CDK9 [15] and 84.5% at CDK3. Besides, the “effect on cell cycle” value in the series with MIA PaCa-2 cells [12] was “G2-arrested effect”. Besides, the inhibition at 0.05 µM at CDK9/cyclinT1 was 98.6%.
